Several values for one entry are separate records, joined by “and”; a condition that tells them apart may be missing. Equal values may be shown once. Read-outs that look alike come from different tables or passages of the source.
What was measured:
[1] = VSMC viability (MTS) in CPP2-supplemented medium; type: cell-based, human; details: human, read-out: VSMC viability (MTS), % of medium control; for viability at 48 h, 3 µM: 3 µM with CPP2; for viability at 48 h, 10 µM: 10 µM with CPP2; for viability at 48 h, 30 µM: 30 µM with CPP2
Experimental: (§1) Macrophage accumulation and inflammation coincide with the initial phase of calcification. To this end, VSMCs and THP-1-derived macrophages were exposed to CPP2-supplemented medium. CPP2 prepared from human serum as described previously[61] (Supplementary Figs. 6 and 7), induced a pronounced VSMC monolayer calcification after 48 h, which was decreased by (OEG2)2-IP4 in a dose-dependent fashion, and the effect became significant at 10 µM (Fig. 3e). […] Both H2O2 (proxy for oxidative stress) and tumor necrosis factor-alpha (TNF-α) (proxy for inflammatory response) levels were assayed in the VSMC culture supernatants subsequent to CPP2 treatment with and without compounds[30]. However, no increase in H2O2 nor TNF-α compared to control could be detected in either assay. For the CPP-induced VSMC calcification assay (Fig. 3e) a roughly 10-fold higher concentration of (OEG2)2-IP4 was necessary to achieve similar activity as in the CaP-induced VSMC calcification assay (Fig. 3b). […] In the CaP assay, low inhibitor concentration may be sufficient to inhibit crystal nucleation, whereas for the CPP assay higher inhibitor concentrations may be needed to achieve sufficient particle stabilization by chemisorption of inhibitor onto CPPs. Similar results have been reported for hydrogen sulfide in the context of VC[62],[64]. […] An increase in the TNFα levels in the cell culture supernatants was not observed for (OEG2)2-IP4 with (Fig. 3h) and without (Supplementary Fig. 10) combined CPP2 treatment.
(§2) Cell viability was assessed using the MTS assay (CellTiter 96® Aqueous One Solution Cell Proliferation Assay, G3580; Promega, Madison, WI, USA) according to the manufacturer’s instructions. Assays using combined treatment of CPPs or CaP and test compounds were performed in 24-well plates using 20,000 cells per well and assays using test compounds only were performed in a 96-well plate format with a seeding density of 10,000 (VSMC) or 50,000 (THP-1) cells per well, respectively. For controls, cells were treated with respective complete medium only and results were calculated as % of control.

[2] = test system: primary human VSMCs; assay: VSMC viability (MTS) in CPP2-supplemented medium; type: cell-based
Experimental: as §1, §2

[3] = test system: serum CPP; assay: CPP calcium, CPP2 hydrodynamic diameter and T50 in rat sera at sacrifice; type: in vivo, male Wistar rats; details: 5, 15, 50 mg/kg/day
Experimental: The inhibitory effect of (OEG2)2-IP4 on heart calcifications was significant starting at 15 mg/kg/day (Fig. 6b). The compound’s activity was also evident following von Kossa staining (Fig. 6c) on the thoracic part of the aorta, and quantification of the von Kossa-positive area (Fig. 6d). […] In the femoral artery, reduction in bulk calcium was insignificant for all tested groups, likely due to the low level of calcification detected in the vehicle control (Fig. 6f, Supplementary Table 9).
DLS analysis of CPPs induced in serum samples collected from in vivo adenine-induced VC studies and stored at −20 °C was performed as described for human serum samples and CPP hydrodynamic diameter development was monitored by hourly DLS measurements.
The first group was treated with vehicle (double distilled (d.d.) water), the second, third, and fourth groups were treated with daily doses equivalent of 5, 15, and 50 mg/kg of (OEG2)2-IP4, respectively, in 2 mL d.d. water starting 1 week after the administration of the adenine diet. […] Serum samples were analyzed for creatinine according to the Jaffe method, calcium (using flame atomic absorption spectrometry[74]), and phosphate (DiaSys Diagnostic Systems, Holzheim, Germany) concentrations. […] In addition, serum aliquots were centrifuged (10,000 × g, 4 °C, 30 min) and T50’s were determined as described above. […]

[4] = biological target: T1, Cyclooxygenase COX-2 (Homo sapiens, UniProt P35354); assay: Off-target 118010; type: biochemical
T1 construct: purchased Eurofins Panlabs Discovery Services Taiwan, Ltd
T1 sequence (P35354 18-604): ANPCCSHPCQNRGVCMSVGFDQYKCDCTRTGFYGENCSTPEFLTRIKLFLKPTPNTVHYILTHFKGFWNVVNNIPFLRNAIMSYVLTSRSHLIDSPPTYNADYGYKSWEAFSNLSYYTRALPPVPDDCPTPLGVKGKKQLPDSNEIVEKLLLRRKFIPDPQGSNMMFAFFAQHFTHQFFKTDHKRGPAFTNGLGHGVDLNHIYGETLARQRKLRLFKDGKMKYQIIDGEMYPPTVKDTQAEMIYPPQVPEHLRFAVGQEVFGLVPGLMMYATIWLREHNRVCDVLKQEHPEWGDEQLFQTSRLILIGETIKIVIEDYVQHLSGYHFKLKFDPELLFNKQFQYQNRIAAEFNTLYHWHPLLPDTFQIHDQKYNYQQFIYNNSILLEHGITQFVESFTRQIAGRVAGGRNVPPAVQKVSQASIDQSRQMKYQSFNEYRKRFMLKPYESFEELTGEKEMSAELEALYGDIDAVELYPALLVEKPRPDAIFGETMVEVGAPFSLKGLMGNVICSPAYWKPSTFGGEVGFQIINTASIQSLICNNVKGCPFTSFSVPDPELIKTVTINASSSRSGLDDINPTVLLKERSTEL
Experimental: (§3) The potential off-target activity of 10 µM (OEG2)2-IP4 was assessed against a panel of 87 enzymes, receptors, or ion channels that are used in standard safety pharmacology screens.
(§4) 3.2. Off-target screening assay
(§5) The experiments were conducted by a contract research organization (Eurofins Panlabs Discovery Services Taiwan, Ltd.) and details on the respective assays can be retrieved via the catalog number provided in Supplementary Table 11 from the company’s webpage
(§6) (https://www.eurofinsdiscoveryservices.com/). […]
(§7) At sacrifice the left tibia of animals of the rat model with dietary adenine/high-phosphate-induced uremia and VC was collected, fixed with 70% v/v EtOH and embedded in methyl methacrylate. The trabecular bone compartment is known to be the most metabolic active i.e. actively re-structured bone compartment in CKD. Therefore, histomorphometric and micro-computed tomography (µCT) analysis of bone was performed on the trabecular compartment. Tibial sections were Goldner-stained for histomorphometric analysis of the proximal metaphysis using the AxioVision Release 4.5 software, as […]
(§8) described previously5. […]

[5] = biological target: T2, Dopamine D2S (Homo sapiens, UniProt P14416); assay: Off-target 219700; type: binding
T2 construct: purchased Eurofins Panlabs Discovery Services Taiwan, Ltd
T2 sequence (P14416 1-414 isoform P14416-2): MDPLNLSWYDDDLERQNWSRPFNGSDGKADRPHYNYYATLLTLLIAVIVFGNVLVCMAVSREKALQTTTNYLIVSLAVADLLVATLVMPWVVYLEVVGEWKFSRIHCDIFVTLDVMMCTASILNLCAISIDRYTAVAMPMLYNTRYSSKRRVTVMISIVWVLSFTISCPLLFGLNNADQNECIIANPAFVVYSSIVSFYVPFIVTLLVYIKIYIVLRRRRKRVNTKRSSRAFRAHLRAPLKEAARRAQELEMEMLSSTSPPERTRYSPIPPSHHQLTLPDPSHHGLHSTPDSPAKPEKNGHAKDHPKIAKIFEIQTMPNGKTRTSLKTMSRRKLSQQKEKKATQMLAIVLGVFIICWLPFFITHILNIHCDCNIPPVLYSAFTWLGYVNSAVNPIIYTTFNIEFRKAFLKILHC
Experimental: as §3, §4, §5, §6, §7, §8

[6] = biological target: T3, Serotonin (5-Hydroxytryptamine) 5-HT1A (Homo sapiens, UniProt P08908); assay: Off-target 271110; type: binding
T3 construct: purchased Eurofins Panlabs Discovery Services Taiwan, Ltd
T3 sequence (P08908 whole entry): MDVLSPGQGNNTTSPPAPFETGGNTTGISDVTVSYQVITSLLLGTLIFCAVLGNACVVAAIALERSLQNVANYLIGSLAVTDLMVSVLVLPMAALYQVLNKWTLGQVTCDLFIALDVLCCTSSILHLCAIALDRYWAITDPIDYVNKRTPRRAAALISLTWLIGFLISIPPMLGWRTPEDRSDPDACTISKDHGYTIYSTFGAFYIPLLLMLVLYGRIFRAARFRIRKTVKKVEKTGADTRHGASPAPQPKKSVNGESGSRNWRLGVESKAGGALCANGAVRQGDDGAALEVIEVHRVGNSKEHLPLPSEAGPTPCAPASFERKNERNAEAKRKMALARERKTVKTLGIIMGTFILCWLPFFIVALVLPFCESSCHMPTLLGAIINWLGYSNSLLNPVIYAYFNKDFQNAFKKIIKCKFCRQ
Experimental: as §3, §4
The experiments were conducted by a contract research organization (Eurofins Panlabs Discovery
Services Taiwan, Ltd.) and details on the respective assays can be retrieved via the catalog number
provided in Supplementary Table 11 from the company’s webpage
as §6

[7] = biological target: T4, Tachykinin NK1 (Homo sapiens, UniProt P25103); assay: Off-target 255520; type: binding
T4 construct: purchased Eurofins Panlabs Discovery Services Taiwan, Ltd
T4 sequence (P25103 whole entry): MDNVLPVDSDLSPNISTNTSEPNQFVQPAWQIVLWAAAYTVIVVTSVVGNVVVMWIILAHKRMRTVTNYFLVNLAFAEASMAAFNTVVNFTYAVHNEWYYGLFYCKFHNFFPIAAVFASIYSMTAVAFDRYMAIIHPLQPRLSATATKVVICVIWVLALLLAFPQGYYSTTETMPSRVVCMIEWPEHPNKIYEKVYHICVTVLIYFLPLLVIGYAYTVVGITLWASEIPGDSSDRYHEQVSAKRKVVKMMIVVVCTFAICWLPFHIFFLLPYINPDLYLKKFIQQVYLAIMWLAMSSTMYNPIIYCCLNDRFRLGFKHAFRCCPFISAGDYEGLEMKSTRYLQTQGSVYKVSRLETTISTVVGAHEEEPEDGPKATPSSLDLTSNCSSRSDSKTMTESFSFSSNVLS
Experimental: as §3, §4, §5, §6, §7, §8

[8] = Serum calcification propensity assay after 4.5 h incubation in enzymatically active human serum; details: Fig. 2e; for ΔT50 after 4.5 h vs 0 h incubation in enzymatically active human serum: compound at c350 concentration, 37 °C, individual donors
[9] = 1 µM with CPP2, replicates Fig. 3f

COCCOCCO[C@@H]1[C@@H](OP(=O)(O)O)[C@H](OCCOCCOC)[C@@H](OP(=O)(O)O)[C@@H](OP(=O)(O)O)[C@H]1OP(=O)(O)O [(OEG2)2-IP4, 4,6-Di-O-(methoxy-diethyleneglycol)-myo-inositol-1,2,3,5-tetrakis(phosphate)] gave a viability at 48 h, 3 µM [1] of 102%, a viability at 48 h, 10 µM [1] of 104% and a viability at 48 h, 30 µM [1] of 101%. The viability at 48 h, 100 µM ([1]; 100 µM with CPP2) was 93.7%, the “VSMC viability in CPP2 setup” value [2] was “did not reduce VSMC viability” and the “VSMC viability (MTS), % of medium control” value (“VSMC viability (MTS), %” for short) [2, 9] was 111.835% and 81.6116% and 105.448%. The “VSMC viability (MTS), %” value ([2]; 3 µM with CPP2) was 87.2434% and 103.748%, the “VSMC viability (MTS), %” value ([2]; 10 µM with CPP2) was 94.1761% and 106.452% and the “VSMC viability (MTS), %” value ([2]; 30 µM with CPP2) was 95.6307% and 101.925%. The “VSMC viability (MTS), %” value ([2]; 100 µM with CPP2) was 103.228% and 101.178%, the “serum CPP calcium content, CPP2 hydrodynamic diameter and T50 in sera at sacrifice” value [3] was “did not differ between treatment groups” and the inhibition at 10 µM [4] was 8%. The inhibition at 10 µM [5] was 7%, the inhibition at 10 µM [6] was 11% and the inhibition at 10 µM [7] was -14%. For the same molecule, the “ΔT50 after 4.5 h vs 0 h incubation in enzymatically active human serum” value [8] was -10 min and 0 min and 51 min and 10 min.
With O=P(O)(O)O[C@H]1[C@H](OP(=O)(O)O)[C@@H](OP(=O)(O)O)[C@H](OP(=O)(O)O)[C@@H](OP(=O)(O)O)[C@H]1OP(=O)(O)O [IP6, myo-Inositol hexakisphosphate] the viability at 48 h, 1 µM ([1]; primary human VSMCs, 1 µM with CPP2, replicates Fig. 3f) was 100%, the viability at 48 h, 3 µM ([1]; primary human VSMCs) was 106% and the viability at 48 h, 10 µM ([1]; primary human VSMCs) was 109%. For the same molecule, the viability at 48 h, 30 µM ([1]; primary human VSMCs) was 94.2%, the “VSMC viability (MTS), %” value [2, 9] was 94.0938% and 110.013% and the “VSMC viability (MTS), %” value ([2]; 3 µM with CPP2) was 97.0633% and 115.505%. For the same molecule, the “VSMC viability (MTS), %” value ([2]; 10 µM with CPP2) was 97.8153% and 108.364%, the “VSMC viability (MTS), %” value ([2]; 30 µM with CPP2) was 106.197% and 112.672% and the “VSMC viability (MTS), %” value ([2]; 100 µM with CPP2) was 103.122% and 102.613% and 123.477%. For the same molecule, the “ΔT50 after 4.5 h vs 0 h incubation in enzymatically active human serum” value [8] was -69 min and -77 min and -76 min and -70 min and the “decrease of T50 from baseline after 4.5-h incubation in enzymatically active serum” value ([8]; mean) was 73 min.
